{
  "source": "paper PMC8234273",
  "about": "“A Sesquiterpene Synthase from the Endophytic Fungus Serendipita indica Catalyzes Formation of Viridiflorol” (Biomolecules, 2021)",
  "target": "T1, SiTPS (Serendipita indica, UniProt G4TNA6)",
  "T1 construct": "gene PIIN_06735; full coding region from S. indica cDNA, C-terminal His-tag (pET28b+), E. coli C41, His SpinTrap purified and desalted",
  "T1 sequence (G4TNA6 1-515)": "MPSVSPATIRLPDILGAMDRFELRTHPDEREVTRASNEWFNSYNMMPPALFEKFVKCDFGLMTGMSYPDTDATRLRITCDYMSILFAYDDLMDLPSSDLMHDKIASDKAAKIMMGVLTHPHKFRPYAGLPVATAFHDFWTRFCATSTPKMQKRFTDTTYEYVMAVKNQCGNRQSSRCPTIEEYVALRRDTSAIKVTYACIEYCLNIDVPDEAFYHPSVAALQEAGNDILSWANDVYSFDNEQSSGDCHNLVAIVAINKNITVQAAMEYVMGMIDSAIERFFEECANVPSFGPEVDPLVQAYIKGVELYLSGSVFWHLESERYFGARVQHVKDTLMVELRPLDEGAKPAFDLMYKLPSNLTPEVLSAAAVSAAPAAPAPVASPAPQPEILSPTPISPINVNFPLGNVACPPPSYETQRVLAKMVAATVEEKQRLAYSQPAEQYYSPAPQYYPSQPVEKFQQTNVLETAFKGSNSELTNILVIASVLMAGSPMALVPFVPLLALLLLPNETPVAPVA",
  "experiment": "in vitro terpene synthase assay, GC-MS of hexane extract",
  "type": "biochemical",
  "settings": "10 mM MgCl2, 100 mM KCl, 5 mM DTT, 10% glycerol, 50 mM HEPES pH 7.2, 30 °C, 1 h",
  "data": [
    {"smiles": "CC(C)=CCC/C(C)=C/CC/C(C)=C/COP(=O)(O)OP(=O)(O)O", "note": "[E,E-FPP]", "values": [
      {"measurement": "in vitro terpene synthase assay, GC-MS of hexane extract", "value": "Hexane extracts showed activity only when SiTPS was incubated with E,E-FPP"}
    ]}
  ]
}
